We go through six compounds from paper PMC6941357, “An in vitro toolbox to accelerate anti-malarial drug discovery and development” (Malaria Journal, 2020).

Data set [1] in a line: In vitro metabolism (metabolic stability) in human liver microsomes. The conditions noted are these: human, liver microsomes, pH 7.4, HLM CLint, human liver microsomes; average of n = 2 replicates; < 7 means < 15% loss over 60 min. Put shortly: (§1)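 Intrinsic clearance (µL/min/mg protein) came from the first-order substrate-depletion rate in human liver microsomes, using only the initial log-linear phase where kinetics deviated. Samples were quenched at 2, 5, 15, 30 and 60 min and quantified by LC–MS. Unbound CLint was obtained by dividing by microsomal fu.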

Data set [2] deals with T1, Albumax medium (lipid rich bovine serum albumin) (Bos taurus, UniProt P02769).
T1 construct: purchased Gibco, Thermo Fisher Scientific
T1 sequence (P02769 25-607): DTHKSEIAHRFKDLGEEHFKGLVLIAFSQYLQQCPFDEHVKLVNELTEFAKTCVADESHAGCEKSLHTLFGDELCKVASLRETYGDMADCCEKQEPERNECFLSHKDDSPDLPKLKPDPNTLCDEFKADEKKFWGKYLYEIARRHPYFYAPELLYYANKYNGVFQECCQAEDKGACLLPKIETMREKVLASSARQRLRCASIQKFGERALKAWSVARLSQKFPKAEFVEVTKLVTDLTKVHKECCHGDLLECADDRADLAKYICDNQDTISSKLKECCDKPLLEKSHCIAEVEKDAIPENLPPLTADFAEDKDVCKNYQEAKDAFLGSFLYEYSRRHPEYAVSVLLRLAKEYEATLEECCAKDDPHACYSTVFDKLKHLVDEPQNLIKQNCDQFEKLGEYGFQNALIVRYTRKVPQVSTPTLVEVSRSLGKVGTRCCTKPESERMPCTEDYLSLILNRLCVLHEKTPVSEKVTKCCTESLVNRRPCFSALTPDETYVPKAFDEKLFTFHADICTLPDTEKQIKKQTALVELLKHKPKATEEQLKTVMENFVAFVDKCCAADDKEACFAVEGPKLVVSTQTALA
Nature of the data set: Binding in Albumax medium via ultracentrifugation. It is filed as in vitro ADME. The conditions noted are these: for fraction unbound at […], 500 ng/mL: bovine, isolated protein, pH 7.4. Put shortly: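 Unbound fraction (fu) taken as protein-free supernate concentration over total concentration after ultracentrifuging compound-spiked Albumax at 37 °C (5% or 10% CO2, or air). Analysis used 1:1 mixing with the opposite blank matrix against a common pH 7.4 calibration; degradation judged by start versus end Ctotal.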

The nature of data set [3]: Ionization constants by potentiometric titration. The class given is physicochemical. The conditions noted are these: basic pKa (B), mean ± SD, n = 3 titrations; for pKa: aqueous solution (DMSO stock diluted 1:10 with water), read-out: Measured pKa. The procedure:
The autotitrator was controlled by Tiamo software (Version 1.3). pH measurements were conducted using a Metrohm LL Micro glass electrode which was calibrated on the day of use with calibration standards at pH 2, 4, 7 and 10. All reagents were standardized (directly or indirectly) against potassium hydrogen phthalate (Sigma-Aldrich, A.C.S. Acidimetric Standard). Titrant solutions were protected from carbon dioxide absorption by flushing with nitrogen before sealing or by the incorporation of a drying tube filled with self-indicating soda lime into the titration reaction vessel set-up.
Aliquots were introduced directly into the titration vessel and diluted 1:10 with water (typical final compound concentration of 0.5 mM).

Data set [4] can be described thus: Bidirectional permeability across Caco-2 cell monolayers. To be noted: human. Put shortly:
(§2)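 Donor and acceptor concentrations measured by LC–MS to give Papp, mass balance and efflux ratio (mean B–A over A–B Papp). Media were pH 7.4 HEPES-buffered HBSS or human plasma on both sides; for plasma, Papp used the donor fraction unbound. Donor contained 0.1% v/v DMSO.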
(Caco-2 monolayers are a common model of the intestinal barrier.)

Data set [5] can be described thus: Solubility in biorelevant media. The conditions noted are these: for solubility at 1 h: 37 °C, fassgf or other biorelevant; for solubility at 1 h / solubility: thermodynamic from solid. The method, boiled down: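 LC–MS quantification of supernatants, after two centrifugations, in triplicate against calibration standards. Media: FaSSGF sampled at 1 h; FaSSIF-V2, FeSSIF-V2 and pH 7.4 PBS sampled at 5–6 h; all at 37 °C on an orbital mixer at 600 rpm.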

In a further data set the test system is human liver microsomes. Kind of data set: in vitro. Put shortly: as §1
For a further data set, the system named is human plasma. To be noted: methods UF, ED, EP or not described per compound, ref [6]–[22] of Additional file 1; cited from earlier work.
Another data set concerns Caco-2 cell monolayers. Kind of data set: Bidirectional permeability across Caco-2 cell monolayers. The conditions noted are these: matrix: pH 7.4 buffer. Put shortly: as §2
Setting [6] is: Caco-2, A–B Papp, matrix: human plasma, corrected for fu.
Where [7] appears, read: phosphate buffered saline pH 7.4, 37 °C, pH 7.4, aqueous buffer.
The mark [8] stands for this setting: Caco-2, pH 7.4, A–B Papp, matrix: pH 7.4 buffer.

Values after ≈ are worked out from the molar mass of the structure shown. Values joined by “and” are separate entries in the source; they are usually repeats but may differ in a detail not shown here. Equal values may be shown once.

The microsomal CLint is the rate of metabolic loss divided by the concentration. Higher therefore signals faster metabolism. One may read the fraction unbound as the share of the substance not bound to proteins or other matrix. A low value points to little free substance. The Papp B→A is how fast a substance crosses the layer from the basolateral side. Broadly, the efflux ratio is the permeability from basolateral to apical divided by that in the opposite direction, in the common usage. A word on the Papp A→B: it is the apparent permeability from the apical to the basolateral side of a cell layer. Lower therefore signals poor permeation. For orientation: solubility means the dissolved amount per volume that the medium holds. Low readings indicate little dissolved substance, high ones much dissolved substance. In data set [1], `Cc1nc(Nc2ncc(N3CCN(C)[C@H](C)C3)c(Nc3cc(C)n(C)n3)n2)cc(C2CC2)c1F` [MMV253] gave an intrinsic clearance (microsomal CLint) at 1 µM of 13.2 µL/min/mg. In data set [2], this compound registered a fraction unbound at […], 500 ng/mL of 0.48 ± 0.026. In addition, in data set [3], the pKa turned out to be 8 ± 0.03. In addition, the Papp B→A in data set [4] (Caco-2) was 150 ± 23 ×10⁻⁶ cm/s. In addition, the efflux ratio in data set [4] (Caco-2) was 1. This compound had a Papp A→B in data set [4] (setting [6]) of 150 ± 29 ×10⁻⁶ cm/s. Further, the solubility at 1 h in data set [5] (FaSSGF) was > 2000 µg/mL and > 4300 µM. Also, the solubility in data set [5] (FaSSIF-V2, 37 °C, fassif) is 569 µg/mL and 1220 µM; in data set [5] (FeSSIF-V2, 37 °C, fessif), > 2000 µg/mL and > 4300 µM; in data set [5] (setting [7]), 19 µg/mL and 40.8 µM.
Take `C[C@H]1Cc2c([nH]c3cc(Cl)c(F)cc23)[C@@]2(N1)C(=O)Nc1ccc(Cl)cc12` [KAE609]: the microsomal CLint at 1 µM in data set [1] stood at 24.1 µL/min/mg. In data set [2], this compound showed a fraction unbound at […], 500 ng/mL of 0.044 ± 0.004. Further, in data set [3], the pKa worked out at 5.1 ± 0.02. The Papp B→A in data set [4] (Caco-2) is > 300 ×10⁻⁶ cm/s. Besides, in data set [4] (setting [6]), the Papp A→B is > 300 ×10⁻⁶ cm/s. In data set [5] (FaSSGF), the solubility at 1 h is 1540 µg/mL and 3940 µM. Further, the solubility in data set [5] (FaSSIF-V2, 37 °C, fassif) was 111 µg/mL and 284 µM; in data set [5] (FeSSIF-V2, 37 °C, fessif) it was 1240 µg/mL and 3180 µM; in data set [5] (setting [7]) it was 30.4 µg/mL and 77.9 µM.
As to `CC1(C)c2nc(-c3ccc(F)cc3)c(Nc3ccc(F)cc3)n2CCN1C(=O)CN` [KAF156], the microsomal CLint at 1 µM in data set [1] is 14.7 µL/min/mg. Further, the fraction unbound at […], 500 ng/mL in data set [2] was 0.38 ± 0.017. Also, in data set [3], the pKa amounted to 8.4 ± 0.06. The compound further gave a Papp B→A in data set [4] (Caco-2) of 230 ± 17 ×10⁻⁶ cm/s. For the same compound, the Papp A→B in data set [4] (setting [6]) worked out at 47 ± 7.6 ×10⁻⁶ cm/s. For the same compound, the solubility at 1 h in data set [5] (FaSSGF) is > 2000 µg/mL and > 4850 µM. In addition, the solubility in data set [5] (FaSSGF, FaSSIF-V2, FeSSIF-V2 and PBS pH 7.4, 37 °C, pH 7.4, aqueous buffer) is 400 to 500 µg/mL (≈ 972 to 1220 µM); in data set [5] (FaSSIF-V2, 37 °C, fassif) it was 1600 µg/mL and 3880 µM; in data set [5] (FeSSIF-V2, 37 °C, fessif) it was > 2000 µg/mL and > 4850 µM; in data set [5] (setting [7]) it was 560 µg/mL and 1360 µM.
Take `O=C(NCCN1CCCC1)c1cc(-c2ccc(CN3CCOCC3)cc2)nc2ccc(F)cc12` [M5717]: in the data set on human liver microsomes, the “Unbound CLint” value is listed as 22.2 µL/min/mg. For the same compound, the “HLM CLint” value in the data set with human liver microsomes (human, microsomes) amounted to 11.1 µL/min/mg. In addition, the “Fraction unbound, Albumax” value in data set [2] is 0.55 ± 0.041. Besides, the Literature fu in the data set with human plasma was 0.23. Besides, in the data set with Caco-2 cell monolayers, the “A–B Papp” value is 34 ± 2.6 10^−6 cm/s and the “B–A Papp” value is 39 ± 7.6 10^−6 cm/s. In the data set with Caco-2 cell monolayers (mean B–A/A–B Papp), the efflux ratio worked out at 1.1. Also, the “solubility in all media tested” value in data set [5] (FaSSGF, FaSSIF-V2, FeSSIF-V2, PBS pH 7.4) is > 2000 µg/mL.
Consider `Cc1cc(Nc2ccc(S(F)(F)(F)(F)F)cc2)n2nc(C(C)(F)F)nc2n1` [DSM265], for which the “Measured pKa” value in data set [3] was “no ionizations could be detected”. Also, in data set [4] (Caco-2, pH 7.4), the Papp B→A amounted to 49 ± 5.1 ×10⁻⁶ cm/s. In addition, in data set [4] (setting [8]), the Papp A→B turned out to be 52.4 ×10⁻⁶ cm/s. In addition, in the data set on Caco-2 cell monolayers, the “A–B Papp” value is on record as 69.7 10^−6 cm/s. In data set [5] (setting [7]), the solubility is 2.04 µg/mL and 4.9 µM.
`CO[C@H]1O[C@@H]2O[C@@]3(C)CC[C@H]4[C@H](C)CC[C@@H]([C@H]1C)[C@@]24OO3` [Artemether] displayed a microsomal CLint at 1 µM in data set [1] of 163 µL/min/mg. Further, the fraction unbound at […], 500 ng/mL in data set [2] is 0.46 ± 0.039. The Literature fu in the data set on human plasma is recorded as 0.046. Further, the basolateral-to-apical permeability (Papp B→A) in data set [4] (Caco-2, pH 7.4) is 42 ± 5.6 ×10⁻⁶ cm/s. In data set [4] (setting [8]), this compound yielded a Papp A→B of 39.1 ×10⁻⁶ cm/s. For the same compound, in the data set with Caco-2 cell monolayers, the “A–B Papp” value was 46.3 10^−6 cm/s. Moreover, in data set [5] (FaSSGF), the solubility at 1 h was 95 µg/mL and 320 µM. For the same compound, the solubility was 166 µg/mL and 556 µM in data set [5] (FaSSIF-V2, 37 °C, fassif); 1040 µg/mL and 3480 µM in data set [5] (FeSSIF-V2, 37 °C, fessif); 109 µg/mL and 365 µM in data set [5] (setting [7]).
